# Experimental data reported in US20080305100A1, “Activated Protein C Inhibits Undesirable Effects of Plasminogen Activator in the Brain” (priority 2004, published 2008).
# How the values were obtained:
# AIF = test: Western blot of AIF in nuclear extracts of NMDA/tPA treated neurons; format: cell-based, mouse; conditions: for AIF nuclear translocation in the presence of tPA (NMDA/tPA injury): effect of APC or caspase inhibitor
# Description: (§1) Primary neuronal cultures were prepared from fetal C57BU6J mice as we have previously described^23. Cultures were maintained in serum-free NEUROBASAL medium plus B27 supplement (Gibco BRL, Rockville, Md.) in a humidified 5% CO2 incubator at 37° C. for 14 days before 3 hr to 24 hr treatment with tPA (20 μg/ml) alone, NMDA (25 μM)/5 μM glycine, or tPA plus NMDA. Ac-DEVD-CHO (50 μM), z-IETD-fmk (20 μM), or z-LEHD-fmk (5 μM) was applied 3 hr prior to tPA/NMDA treatment. Mouse recombinant APC (20 nM) was added 30 min before tPA/NMDA treatment.
# (§2) Whole cellular extracts, nuclear proteins, or cell membrane fractions were prepared as we have previously described^23. The relative abundance of each protein was determined by scanning densitometry using β-actin as an internal control. Data from multiple Western blots (n=3-5) were averaged for statistical analysis.
# caspase-8 [1] = test: Caspase-8 activity in BEC lysate; format: cell-based, human; conditions: tPA plus hypoxia, at 1 hr; remained elevated over 16 hr vs hypoxia alone
# Description: (§3) Primary human BEC were isolated from rapid autopsies from neurologically normal young individuals after trauma and cultured as we have previously described^20. Cells were maintained in serum-free Dulbeco's Modified Eagle Medium and exposed for 1 hr to 16 hr to tPA (20 μg/ml) under normoxic conditions (20% oxygen, 5 mM glucose), hypoxia (<2% oxygen, no glucose), or to tPA plus hypoxia. Hypoxia was induced using an anaerobic chamber (Form a Scientific, Holbrook, N.Y.)^20. The levels of O2 were monitored by O2 Fyrite (Form a Scientific). z-IETD-fmk (10 μM) or z-LEHD-fmk (15 μM) was applied 2 hr prior to tPA/hypoxia treatment. Human APC (10 nM to 600 nM) was added at the time of tPA/hypoxia treatment. Caspase-3, -8 or -9 activity was determined in the presence of 400 nM APC.
# (§4) BEC or cortical neuron lysate was incubated at 37° C. with caspase-3 (DEVD-pNA), caspase-8 (IETD-pNA) (ApoAlert caspase assay kit; Clontech, Palo Alto, Calif.), or caspase-9 (Ac-LEHD-pNA; Chemicon; Temecula, Calif.) substrate. Substrate hydrolysis was determined as absorbance change at 405 nm in a microplate reader^23. Enzymatic activity was expressed in arbitrary units per mg of protein.
# MMP-9 = test: MMP gelatin zymography of BEC conditioned medium; format: cell-based, human; conditions: tPA 20 μg/ml, hypoxic BEC, 4 hr
# Description: The conditioned medium from BEC exposed to tPA (20 μg/ml) or hypoxia for 4 hr, in the absence or presence of human APC (50 nM to 1,000 nM), was analyzed by gelatin zymography as previously described^11. […] MMP-9 activity was quantified as fold increase compared with normoxic controls.
# human BEC [2] = test: tPA/hypoxia in human BEC: apoptosis (TUNEL); format: cell-based
# Description: as §3
# (§5) Cell injury in BEC was detected by the release of LDH (LDH assay, Sigma). The Hoechst dye (Hoechst 33,342, Sigma) and in situ terminal deoxynucleotidyl transferase-mediated digoxigenin-dUTP nick-end labeling (TUNEL) (Phoenix Flow Systems, San Diego, Calif.) assays were performed on acetone-fixed BEC or paraformaldexyde-fixed neurons. Images were visualized using a Nikon TE2000-U microscope.
# p53, Bax, Bcl-2 = test: Western blot of p53, Bcl-2 and Bax in NMDA-treated neurons; format: cell-based, mouse; conditions: tPA plus NMDA vs NMDA
# Description: as §1, §2
# caspase-3 [3] = test: Caspase-3 activity in cortical neuron lysate; format: cell-based, mouse
# Description: as §1, §4
# caspase-3 [4] = test: Caspase-3 activity in BEC lysate; format: cell-based, human; conditions: for increase in caspase-3 activity compared to hypoxia alone: tPA plus hypoxia; for inhibition in caspase-3 activation in hypoxic BEC: absence of tPA; for inhibition in caspase-3 activation in hypoxic BEC / inhibition of caspase-3 activation in hypoxic BEC: z-IETD-fmk 10 μM, z-LEHD-fmk 15 μM applied 2 hr prior; for inhibition of caspase-3 activation in hypoxic BEC: presence of tPA
# Description: as §3, §4
# caspase-8 [5] = test: Caspase-8 activity in cortical neuron lysate; format: cell-based, mouse; conditions: for tPA-induced increase in caspase-8 activation: tPA/NMDA treated neurons, APC 20 nM, z-IETD-fmk 20 μM, z-LEHD-fmk 5 μM
# Description: as §1, §4
# human BEC [6] = test: tPA/hypoxia in human BEC: cell injury by LDH release; format: cell-based; conditions: for LDH release into the medium from ischemic BEC: tPA 20 μg/ml plus hypoxia/aglycemia
# Description: as §3, §5
# mouse stroke model = test: In vivo stroke model (45 min MCA occlusion/24 hr reperfusion); conditions: tPA 10 mg/kg iv
# Description: Protocols were approved by the Animal Care Committee at the University of Rochester using National Institutes of Health guidelines. Vehicle, tPA (10 mg/kg, 10% bolus/90% infusion), or tPA plus mouse recombinant APC (0.02 mg/kg to 1 mg/kg, 50% bolus/50% infusion) were administered via the femoral vein using separate intravenous lines and our previously described mouse stroke model^19,20 modified to 45 min MCA occlusion/24 hr reperfusion. tPA was infused during the last 10 min of MCA occlusion and for 20 min into reperfusion. APC was infused either simultaneously with tPA, after tPA infusion, or before tPA infusion. The dose of tPA used here has been frequently used in rodents and is considered to be equivalent to the therapeutic dose in humans^12,13,44,50. CBF was monitored by laser Doppler flowmetry (Transonic Systems)^19. Arterial blood gasses were measured^19. Neurological examinations were performed at 24 hr and scored: no neurological deficit (O), failure to extend left forepaw fully (1), turning to left (2), circling to left (3), unable to walk spontaneously (4), or stroke-related death (5). Neuropathological analysis was performed at 24 hr. Unfixed 1-mm coronal brain slices at the level of optic chiasm were incubated in 2% triphenyltetrazolium chloride in phosphate buffer (pH 7.4). Brain injury, infarct, and edema volumes were determined as previously described^19,20. Fibrin deposition was quantified by Western blotting with anti-fibrin II antibody (1:500, NYB-T2G1; Accurate Chemical Scientific Corp.)^19,20,30 and leukocytes were stained with CD11b antibody (1:250, DAKO Corp.)^19,20. Hemoglobin was determined by a spectrophotometric assay using Drabkin's reagent (Sigma) as we have previously described^19.
# caspase-9 [7] = test: Caspase-9 activity in BEC lysate; format: cell-based, human; conditions: tPA 20 μg/ml plus hypoxia
# Description: as §3, §4
# [8] = target: T1, NR1 or the NR2A subunit of the NMDA receptor (Mus musculus, UniProt P35436+P35438); test: Western blot of NR1 and NR2A subunits in membrane fractions after tPA; format: cell-based; conditions: 24 h after treatment with tPA
# T1 construct: Western blot analysis of NR1 and NR2A subunits in membrane fractions 24 h after treatment with tPA; endogenous in cells; host or cells: primary cortical neurons from fetal C57BL/6J mice
# Description: as §1, §2
# caspase-9 [9] = test: Caspase-9 activity in cortical neuron lysate; format: cell-based, mouse
# Description: as §1, §4
# mouse cortical neurons = test: tPA/NMDA-induced apoptosis in neurons; format: cell-based
# Description: as §1, §5
substance,measurement,setting,value
Ac-DEVD-CHO,AIF nuclear translocation in the presence of tPA (NMDA/tPA injury),AIF,blocked
"tPA: Human recombinant tPA (alteplase, Genentech); in some in vitro studies human recombinant tPA from Sigma",activation of caspase-8 in ischemic BEC,caspase-8 [1],early and sharp increase
same,potentiation of hypoxia-induced MMP-9 activation,MMP-9,about 2.0 fold
same,number of TUNEL-positive hypoxic BEC,"human BEC [2]; tPA plus hypoxia, 4 hr, 60% for hypoxia alone",100%
same,"NMDA-mediated increases in p53 and Bax expression, decrease in Bcl-2 expression","p53, Bax, Bcl-2",did not affect
same,caspase-3 activation relative to NMDA alone,caspase-3 [3]; tPA 20 μg/ml plus NMDA 25 μM,increased
same,activation of caspase-3,"caspase-3 [3]; tPA alone, no NMDA",did not affect
same,increase of nuclear translocation of AIF in the presence of NMDA,AIF; tPA plus NMDA vs NMDA,50%
same,increase in caspase-3 activity compared to hypoxia alone,caspase-3 [4]; at 4 hr,2.8 fold
same,increase in caspase-3 activity compared to hypoxia alone,caspase-3 [4]; within 16 hr,> 3.0 fold
same,"caspase-8 in neurons, tPA/NMDA compared to NMDA alone",caspase-8 [5]; tPA 20 μg/ml plus NMDA 25 μM,robust activation
same,activation of caspase-8,"caspase-8 [5]; tPA alone, no NMDA",did not affect
same,LDH release into the medium from ischemic BEC,"human BEC [6]; 2 hr, background values in the absence of tPA",50%
same,LDH release into the medium from ischemic BEC,"human BEC [6]; 4 hr, 57% in the absence of tPA",95%
same,LDH release from normoxic BEC,"human BEC [6]; tPA alone, normoxia",did not affect
same,improvement of post-ischemic cerebral blood flow (CBF) vs vehicle,mouse stroke model,35%
same,increase in the level of hemoglobin in the ischemic hemisphere,mouse stroke model,greater than 3.0 fold
same,ischemic brain fibrin deposition,mouse stroke model,background level
same,increase of volume of edema compared to controls,mouse stroke model; 24 hr reperfusion,155%
same,increase of volume of infarction compared to controls,mouse stroke model; 24 hr reperfusion,75%
same,volume of cerebral injury compared to controls,mouse stroke model; 24 hr reperfusion,almost doubled
same,motor neurological score,"mouse stroke model; 24 hr, controls 2.3, scale 0-5",3.5
same,increase of brain accumulation of leukocytes,mouse stroke model; CD11b-positive leukocytes,about 65%
same,mice with substantial hemorrhage,mouse stroke model; MCA stroke model,6/6
same,caspase-9 activity in hypoxic BEC relative to hypoxia alone,caspase-9 [7],did not produce a significant increase
same,"proteolytic effect on the NMDA receptor (NR1, NR2A subunit)",[8],failed to cleave
same,"caspase-9 activation, tPA/NMDA compared to NMDA alone",caspase-9 [9]; tPA 20 μg/ml plus NMDA 25 μM,did not alter
same,activation of caspase-9,"caspase-9 [9]; tPA alone, no NMDA",did not affect
same,number of apoptotic neurons,"mouse cortical neurons; tPA 20 μg/ml, 24 hr after exposure to NMDA, vs NMDA alone",doubles
same,effect on neuronal cells,"mouse cortical neurons; tPA alone, no NMDA",did not affect
z-IETD-fmk,tPA-induced apoptosis in ischemic BEC,human BEC [2]; discussion summary,abolished
same,AIF nuclear translocation in the presence of tPA (NMDA/tPA injury),AIF,blocked
same,inhibition in caspase-3 activation in hypoxic BEC,caspase-3 [4],less than 15%
same,inhibition of caspase-3 activation in hypoxic BEC,caspase-3 [4],greater than 95%
same,tPA-induced increase in caspase-8 activation,caspase-8 [5],abolished
same,tPA-induced apoptosis in NMDA-treated neurons,mouse cortical neurons; discussion summary,abolished
z-LEHD-fmk,reduction of caspase-3 activation in cells treated with NMDA alone,"caspase-3 [3]; NMDA alone, no tPA, z-LEHD-fmk 5 μM",greater than 80%
same,AIF nuclear translocation in the presence of tPA (NMDA/tPA injury),AIF,much less effective
same,inhibition in caspase-3 activation in hypoxic BEC,caspase-3 [4],greater than 85%
same,inhibition of caspase-3 activation in hypoxic BEC,caspase-3 [4],only slightly inhibited
same,tPA-induced increase in caspase-8 activation,caspase-8 [5],without effect
